{"source": "paper PMC11249646", "about": "“Small-Molecule Disruptors of the Interaction between Calcium- and Integrin-Binding Protein 1 and Integrin αIIbβ3 as Novel Antiplatelet Agents” (ACS Pharmacology & Translational Science, 2024)", "key": {"[1]": {"target": "T1, CIB1 and αIIb interaction (CIB1-GST : F-αIIb peptide) (Homo sapiens, UniProt Q99828)", "T1 construct": "made in house; host or cells: BL-21 plus RIL cells (E. coli)", "T1 sequence (Q99828 1-191)": "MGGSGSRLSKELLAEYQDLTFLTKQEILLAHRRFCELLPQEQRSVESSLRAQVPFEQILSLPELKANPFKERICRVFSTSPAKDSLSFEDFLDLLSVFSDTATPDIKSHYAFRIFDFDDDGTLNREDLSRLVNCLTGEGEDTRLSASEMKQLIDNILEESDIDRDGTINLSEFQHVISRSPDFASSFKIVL", "assay": "FP assay, 1536-well qHTS format (primary and confirmatory screen)", "format": "binding", "details": "for Curve Class (confirmatory screen): qHTS curve class"}, "[2]": {"target": "T2, GST-CIB1 : F-scrambled peptide (Homo sapiens, UniProt Q99828)", "T2 construct": "made in house; host or cells: BL-21 plus RIL cells (E. coli)", "T2 sequence (Q99828 1-191)": "T1 sequence (Q99828 1-191)", "assay": "FP scrambled-peptide counter screen, 1536-well format", "format": "binding", "details": "for Curve Class (counterscreen): qHTS curve class; for IC50: read-out: IC50 [μM] (counterscreen)"}, "[3]": {"details": "Table S3, confirmatory screen, a negative sign marks inhibitory curves"}, "[4]": {"details": "Table S3, confirmatory screen, negative = inhibition"}, "[5]": {"details": "qHTS FP screen hits, Table S2, negative = inhibition"}, "[6]": {"details": "qHTS FP screen hits, Table S2, one class per curve where COUNT > 1, negative sign = inhibitory curve"}, "[7]": {"details": "qHTS FP screen hits, Table S2, read-out: IC50"}, "[8]": {"details": "Table S3, counterscreen, a negative sign marks inhibitory curves"}, "[9]": {"details": "Table S3, counterscreen, negative = inhibition"}, "[10]": {"details": "confirmatory screen, negative sign = inhibitory curve"}, "[11]": {"details": "confirmatory screen, read-out: IC50 [μM] (confirmatory screen)"}, "[12]": {"details": "qHTS primary screen hits, Table S2, negative = inhibition"}, "[13]": {"details": "qHTS primary screen hits, Table S2, negative sign = inhibitory curve, several classes where COUNT > 1"}, "[14]": {"details": "qHTS primary screen hits, Table S2, read-out: IC50"}, "[15]": {"details": "counterscreen, negative sign = inhibitory curve"}, "[16]": {"details": "Table S3, confirmatory screen, YES/NO call"}, "[17]": {"details": "Table S3, confirmatory screen, read-out: IC50 [μM] (confirmatory screen)"}}, "note": "Read-outs that look alike come from different tables or passages of the source.", "data": [{"smiles": "O=C(O)C(F)(F)F.Oc1cccc2cc(C3CC3)cnc12", "note": "[NCGC00188747-01]", "values": [{"measurement": "Curve Class (confirmatory screen)", "setting": "[1]; [3]", "result": 4}, {"measurement": "Efficacy (%) (confirmatory screen)", "setting": "[1]; [4]", "result": -17, "unit": "%"}, {"measurement": "Efficacy (%)", "setting": "[1]; [5]", "result": -36, "unit": "%"}, {"measurement": "Curve Class", "setting": "[1]; [6]", "result": -1.2}, {"measurement": "IC50", "setting": "[1]; [7]", "result": 31.6, "unit": "µM"}, {"measurement": "Curve Class (counterscreen)", "setting": "[2]; [8]", "result": 4}, {"measurement": "Efficacy (%) (counterscreen)", "setting": "[2]; [9]", "result": -25, "unit": "%"}]}, {"smiles": "CCOC(=O)c1c(-c2ccc(C)o2)csc1NC(=O)CSc1nnnn1-c1ccccc1.O=C(O)C(F)(F)F", "note": "[NCGC00041785-02]", "values": [{"measurement": "Efficacy (%) (confirmatory screen)", "setting": "[1]; confirmatory screen", "result": -47, "unit": "%"}, {"measurement": "Confirm? (confirmatory screen)", "setting": "[1]; confirmatory screen, YES/NO", "result": "YES"}, {"measurement": "Curve Class (confirmatory screen)", "setting": "[1]; [10]", "result": -2.2}, {"measurement": "IC50", "setting": "[1]; [11]", "result": 39.8, "unit": "µM"}, {"measurement": "Efficacy (%)", "setting": "[1]; [12]", "result": -58, "unit": "%"}, {"measurement": "Curve Class", "setting": "[1]; [13]", "result": -1.2}, {"measurement": "IC50", "setting": "[1]; [14]", "result": 28.2, "unit": "µM"}, {"measurement": "Efficacy (%) (counterscreen)", "setting": "[2]; counterscreen", "result": -23, "unit": "%"}, {"measurement": "Confirm? (counterscreen)", "setting": "[2]; counterscreen, YES/NO", "result": "YES"}, {"measurement": "Curve Class (counterscreen)", "setting": "[2]; [15]", "result": 4}]}, {"smiles": "COc1c(O)cccc1[C@H](O)C1CCN(CCc2ccc(F)cc2)CC1", "note": "[NCGC00168042-01]", "values": [{"measurement": "Confirm? (confirmatory screen)", "setting": "[1]; [16]", "result": "YES"}, {"measurement": "Curve Class (confirmatory screen)", "setting": "[1]; [3]", "result": -2.4}, {"measurement": "Efficacy (%) (confirmatory screen)", "setting": "[1]; [4]", "result": -89, "unit": "%"}, {"measurement": "IC50", "setting": "[1]; [17]", "result": 50.1, "unit": "µM"}, {"measurement": "Curve Class (counterscreen)", "setting": "[2]; [8]", "result": -2.1}, {"measurement": "Efficacy (%) (counterscreen)", "setting": "[2]; [9]", "result": -83, "unit": "%"}, {"measurement": "IC50", "setting": "[2]; Table S3, counterscreen", "result": 50.1, "unit": "µM"}]}, {"smiles": "NC(=O)c1ccc(Cc2c(-c3cccc(-c4ccccc4)c3)nn(-c3nc(C(=O)O)cs3)c2O)cc1.O=C(O)C(F)(F)F", "note": "[NCGC00356638-01]", "values": [{"measurement": "Efficacy (%) (confirmatory screen)", "setting": "[1]; confirmatory screen", "result": -125, "unit": "%"}, {"measurement": "Confirm? (confirmatory screen)", "setting": "[1]; confirmatory screen, YES/NO", "result": "YES"}, {"measurement": "Curve Class (confirmatory screen)", "setting": "[1]; [10]", "result": -2.1}, {"measurement": "IC50", "setting": "[1]; [11]", "result": 70.8, "unit": "µM"}, {"measurement": "Efficacy (%)", "setting": "[1]; [12]", "result": -59, "unit": "%"}, {"measurement": "Curve Class", "setting": "[1]; [13]", "result": -2.2}, {"measurement": "IC50", "setting": "[1]; [14]", "result": 56.2, "unit": "µM"}, {"measurement": "Efficacy (%) (counterscreen)", "setting": "[2]; counterscreen", "result": -60, "unit": "%"}, {"measurement": "Curve Class (counterscreen)", "setting": "[2]; [15]", "result": -2.2}, {"measurement": "IC50", "setting": "[2]; counterscreen", "result": 44.7, "unit": "µM"}]}, {"smiles": "O=C(O)C(F)(F)F.O=C1Nc2ccccc2/C1=N/NC(=S)Nc1ccc(C(=O)O)cc1", "note": "[NCGC00229530-01]", "values": [{"measurement": "Curve Class (confirmatory screen)", "setting": "[1]; [3]", "result": 4}, {"measurement": "Efficacy (%) (confirmatory screen)", "setting": "[1]; [4]", "result": -47, "unit": "%"}, {"measurement": "Efficacy (%)", "setting": "[1]; [5]", "result": -32, "unit": "%"}, {"measurement": "IC50", "setting": "[1]; [7]", "result": 8.9, "unit": "µM"}, {"measurement": "Confirm? (counterscreen)", "setting": "[2]; Table S3, counterscreen, YES/NO call", "result": "YES"}, {"measurement": "Curve Class (counterscreen)", "setting": "[2]; [8]", "result": -1.2}, {"measurement": "Efficacy (%) (counterscreen)", "setting": "[2]; [9]", "result": -65, "unit": "%"}, {"measurement": "IC50", "setting": "[2]; Table S3, counterscreen", "result": 12.6, "unit": "µM"}]}, {"smiles": "O=C1c2ccccc2C(=O)c2c1ccc(O)c2O", "note": "[NCGC00095227-06]", "values": [{"measurement": "Confirm? (confirmatory screen)", "setting": "[1]; [16]", "result": "YES"}, {"measurement": "Curve Class (confirmatory screen)", "setting": "[1]; [3]", "result": -1.1}, {"measurement": "Efficacy (%) (confirmatory screen)", "setting": "[1]; [4]", "result": -175, "unit": "%"}, {"measurement": "IC50", "setting": "[1]; [17]", "result": 17.8, "unit": "µM"}, {"measurement": "Efficacy (%)", "setting": "[1]; [5]", "result": -161, "unit": "%"}, {"measurement": "Curve Class", "setting": "[1]; [6]", "result": -2.1}, {"measurement": "IC50", "setting": "[1]; [7]", "result": 35.5, "unit": "µM"}, {"measurement": "Curve Class (counterscreen)", "setting": "[2]; [8]", "result": -2.1}, {"measurement": "Efficacy (%) (counterscreen)", "setting": "[2]; [9]", "result": -195, "unit": "%"}, {"measurement": "IC50", "setting": "[2]; Table S3, counterscreen", "result": 22.4, "unit": "µM"}]}, {"smiles": "O=C(NC1=CC(=O)c2ccccc2C1=O)c1ccccc1.O=C(O)C(F)(F)F", "note": "[NCGC00357425-01]", "values": [{"measurement": "Efficacy (%) (confirmatory screen)", "setting": "[1]; confirmatory screen", "result": -159, "unit": "%"}, {"measurement": "Confirm? (confirmatory screen)", "setting": "[1]; confirmatory screen, YES/NO", "result": "YES"}, {"measurement": "Curve Class (confirmatory screen)", "setting": "[1]; [10]", "result": -1.1}, {"measurement": "IC50", "setting": "[1]; [11]", "result": 11.2, "unit": "µM"}, {"measurement": "Efficacy (%)", "setting": "[1]; [12]", "result": -92, "unit": "%"}, {"measurement": "Curve Class", "setting": "[1]; qHTS primary screen hits, Table S2, negative sign = inhibitory curve", "result": -1.1}, {"measurement": "IC50", "setting": "[1]; [14]", "result": 25.1, "unit": "µM"}, {"measurement": "Efficacy (%) (counterscreen)", "setting": "[2]; counterscreen", "result": -113, "unit": "%"}, {"measurement": "Curve Class (counterscreen)", "setting": "[2]; [15]", "result": -1.1}, {"measurement": "IC50", "setting": "[2]; counterscreen", "result": 11.2, "unit": "µM"}]}]}
